For this test, the system named is HCV 1b-377-neo replicon cells. Description: HCV replicon FRET assay. It counts as cell-based. As to conditions: Hepatitis C virus, read-out: Activity (EC50).

Read-outs that look alike come from different tables or passages of the source.

`COc1ccc2[nH]c(C)c(CC(=O)N3CCC[C@H]3C(=O)Nc3ccc(/C=C/c4ccc(NC(=O)[C@@H]5CCCN5C(=O)Cc5c(C)[nH]c6ccc(OC)cc56)cc4)cc3)c2c1` [Example 34]: the EC50 (HCV replicon) fell in the range of 0.1 to 90 nM.

Take `CC(C)(C)NC(=O)O[C@@H]1C[C@@H](C(=O)Nc2ccc(/C=C/c3ccc(NC(=O)[C@@H]4C[C@@H](O)CN4C(=O)OCc4ccccc4)cc3)cc2)N(C(=O)OCc2ccccc2)C1` [Example 247]: the EC50 (HCV replicon) lay in the range of 1000 to 10000 nM.

Take `CC(C)C(=O)N1CCC[C@H]1C(=O)Nc1ccc(/C=C/c2ccc(NC(=O)[C@@H]3CCCN3C(=O)C(C)C)cc2)cc1` [Example 39]: for the setting “HCV replicon”, the EC50 fell in the range of 100 to 1000 nM.

On to `O=C(Nc1ccc(/C=C/c2ccc(NC(=O)[C@@H]3CCCN3C(=O)Cc3ccncc3)cc2)cc1)[C@@H]1CCCN1C(=O)Cc1ccncc1` [Example 43], for which the EC50 (HCV replicon) lay within 100 to 1000 nM.

In the case of `CC(C)(C)O[C@@H]1C[C@@H](C(=O)Nc2ccc(/C=C/c3ccc(NC(=O)[C@@H]4C[C@@H](OC(C)(C)C)CN4C(=O)[C@H]4CCCO4)cc3)cc2)N(C(=O)[C@H]2CCCO2)C1` [Example 130], the EC50 (HCV replicon) lay within 0.1 to 90 nM.

Take `CC(C)c1sc(Cl)nc1C(=O)N1CCC[C@H]1C(=O)Nc1ccc(/C=C/c2ccc(NC(=O)[C@@H]3CCCN3C(=O)c3nc(Cl)sc3C(C)C)cc2)cc1` [Example 186]: the EC50 (HCV replicon) fell in the range of 100 to 1000 nM.

With `O=C(Nc1ccc(/C=C/c2ccc(NC(=O)[C@@H]3CCCN3C(=O)c3ncccc3OCc3ccccc3)cc2)cc1)[C@@H]1CCCN1C(=O)c1ncccc1OCc1ccccc1` [Example 183], the concentration for a half-maximal effect (EC50) (HCV replicon) was in the range of 1000 to 10000 nM.

Regarding `Cc1noc(C)c1C(=O)N1CCC[C@H]1C(=O)Nc1ccc(/C=C/c2ccc(NC(=O)[C@@H]3CCCN3C(=O)c3c(C)noc3C)cc2)cc1` [Example 202], the EC50 (HCV replicon) is 100 to 1000 nM.

In the case of `CCC(=O)N1CCC[C@H]1C(=O)Nc1ccc(/C=C/c2ccc(NC(=O)[C@@H]3CCCN3C(=O)CC)cc2)cc1` [Example 46], under “HCV replicon”, the EC50 is 100 to 1000 nM.

As to `CN(C)c1ccc(C(=O)N2CCC[C@H]2C(=O)Nc2ccc(/C=C/c3ccc(NC(=O)[C@@H]4CCCN4C(=O)C4CCC4)cc3)cc2)cc1` [Example 92], the EC50 (HCV replicon) is 0.1 to 90 nM.

Regarding `COc1cccc(CC(=O)N2CCC[C@H]2C(=O)Nc2ccc(/C=C/c3ccc(NC(=O)[C@@H]4CCCN4C(=O)Cc4cccc(OC)c4)cc3)cc2)c1` [Example 25], the EC50 (HCV replicon) lay in the range of 100 to 1000 nM.

Consider `CC(Oc1cccc(Cl)c1)C(=O)N1CCC[C@H]1C(=O)Nc1ccc(/C=C/c2ccc(NC(=O)[C@@H]3CCCN3C(=O)C(C)Oc3cccc(Cl)c3)cc2)cc1` (some centres unmarked) [Example 29], for which, for the setting “HCV replicon”, the EC50 lay in the range of 100 to 1000 nM.

Turning to `CN(C)CC(=O)N1CCC[C@H]1C(=O)Nc1ccc(/C=C/c2ccc(NC(=O)[C@@H]3CCCN3C(=O)Cc3cccs3)cc2)cc1` [Example 101], the EC50 (HCV replicon) lay within 0.1 to 90 nM.

Turning to `NCCCCC(N)C(=O)N1CCC[C@H]1C(=O)Nc1ccc(/C=C/c2ccc(NC(=O)[C@@H]3CCCN3C(=O)Cc3ccccc3)cc2)cc1` (some centres unmarked) [Example 273], the EC50 (HCV replicon) lay in the range of 1000 to 10000 nM.

In the case of `O=C(Nc1ccc(/C=C/c2ccc(NC(=O)[C@@H]3CCCN3C(=O)c3ccccc3-c3ccccc3)cc2)cc1)[C@@H]1CCCN1C(=O)c1ccccc1-c1ccccc1` [Example 166], the EC50 (HCV replicon) was in the range of 1000 to 10000 nM.

On to `CC(C)(C)O[C@@H]1C[C@@H](C(=O)Nc2ccc(/C=C/c3ccc(NC(=O)[C@@H]4C[C@@H](OC(C)(C)C)CN4C(=O)OCc4ccccc4)cc3)cc2)N(C(=O)OCc2ccccc2)C1` [Example 294], for which, for the setting “HCV replicon”, the EC50 fell in the range of 100 to 1000 nM.

Turning to `O=C(Nc1ccc(/C=C/c2ccc(NC(=O)[C@@H]3CCCN3C(=O)c3nc4ccccc4[nH]3)cc2)cc1)[C@@H]1CCCN1C(=O)c1nc2ccccc2[nH]1` [Example 180], the EC50 (HCV replicon) is 1000 to 10000 nM.

In the case of `CCN(CC)C(=O)N1CCC[C@H]1C(=O)Nc1ccc(/C=C/c2ccc(NC(=O)[C@@H]3CCCN3C(=O)N(CC)CC)cc2)cc1` [Example 289], the EC50 (HCV replicon) is 0.1 to 90 nM.

In the case of `O=C(Nc1ccc(/C=C/c2ccc(NC(=O)[C@@H]3CCCN3C(=O)c3ncoc3-c3ccccc3)cc2)cc1)[C@@H]1CCCN1C(=O)c1ncoc1-c1ccccc1` [Example 184], the EC50 (HCV replicon) is 100 to 1000 nM.

Turning to `Cc1nc2ccccn2c1C(=O)N1CCC[C@H]1C(=O)Nc1ccc(/C=C/c2ccc(NC(=O)[C@@H]3CCCN3C(=O)c3c(C)nc4ccccn34)cc2)cc1` [Example 187], under “HCV replicon”, the EC50 was 0.1 to 90 nM.

`CCc1ccccc1C(=O)N1CCC[C@@H]1C(=O)Nc1ccc(/C=C/c2ccc(NC(=O)[C@@H]3CCCN3C(=O)c3ccccc3CC)cc2)cc1` [Example 124]: where the note is “HCV replicon”, the half-maximal effective concentration (EC50) lay within 1000 to 10000 nM.

Take `O=C(Nc1ccc(/C=C/c2ccc(NS(=O)(=O)Cc3ccccc3)cc2)cc1)[C@@H]1CCCN1C(=O)Cc1ccccc1` [Example 250B]: where the note is “HCV replicon”, the EC50 fell in the range of 100 to 1000 nM.

As for `CC(C)(C)OC(=O)N1c2ccccc2C[C@H]1C(=O)Nc1ccc(/C=C/c2ccc(NC(=O)[C@@H]3Cc4ccccc4N3C(=O)OC(C)(C)C)cc2)cc1` [Example 20], the EC50 (HCV replicon) was in the range of 100 to 1000 nM.

For the compound `CCc1cccc(C)c1C(=O)N1CCC[C@H]1C(=O)Nc1ccc(/C=C/c2ccc(NC(=O)[C@@H]3CCCN3C(=O)c3c(C)cccc3CC)cc2)cc1` [Example 206], the EC50 (HCV replicon) fell in the range of 1000 to 10000 nM.

As for `COc1cccc(C(=O)N2CCC[C@H]2C(=O)Nc2ccc(/C=C/c3ccc(NC(=O)[C@@H]4CCCN4C(=O)c4cccc(OC)c4OC)cc3)cc2)c1OC` [Example 146], the EC50 (HCV replicon) was 1000 to 10000 nM.

With `CC(=O)N1CC=C[C@H]1C(=O)Nc1ccc(/C=C/c2ccc(NC(=O)[C@@H]3C=CCN3C(=O)Cc3ccncc3)cc2)cc1` [Example 220], the EC50 (HCV replicon) lay within 1000 to 10000 nM.

With `O=C(Nc1ccc(/C=C/c2ccc(NC(=O)[C@@H]3C[C@H](O)CN3C(=O)OCc3ccccc3)cc2)cc1)[C@@H]1C[C@H](O)CN1C(=O)OCc1ccccc1` [Example 7], the EC50 (HCV replicon) lay within 0.1 to 90 nM.

With `CC(C)C(=O)N1CCC[C@H]1C(=O)Nc1ccc(/C=C/c2ccc(NC(=O)[C@@H]3CCCN3C(=O)Cc3cccs3)cc2)cc1` [Example 102], under “HCV replicon”, the EC50 lay within 0.1 to 90 nM.

With `O=C(Nc1ccc(/C=C/c2ccc(NC(=O)[C@@H]3CCCN3C(=O)c3ncccc3-c3ccc(Cl)cc3)cc2)cc1)[C@@H]1CCCN1C(=O)c1ncccc1-c1ccc(Cl)cc1` [Example 230], the EC50 (HCV replicon) is 100 to 1000 nM.

In the case of `COCCOCC(=O)N1CCC[C@H]1C(=O)Nc1ccc(/C=C/c2ccc(NC(=O)[C@@H]3CCCN3C(=O)COCCOC)cc2)cc1` [Example 27], the EC50 (HCV replicon) lay within 100 to 1000 nM.

With `Cc1cc(CC(=O)N2CCC[C@H]2C(=O)Nc2ccc(/C=C/c3ccc(NC(=O)[C@@H]4CCCN4C(=O)C4CCC4)cc3)cc2)on1` [Example 96], the EC50 (HCV replicon) was 0.1 to 90 nM.

On to `Cc1cc(/C=C/c2ccc(NC(=O)[C@@H]3CCCN3C(=O)Cc3ccccc3)c(C)c2)ccc1NC(=O)[C@@H]1CCCN1C(=O)Cc1ccccc1` [Example 277], for which the EC50 (HCV replicon) lay within 0.1 to 90 nM.

In the case of `CC(C)CC(=O)N1CCC[C@H]1C(=O)Nc1ccc(/C=C/c2ccc(NC(=O)[C@@H]3CCCN3C(=O)CC(C)C)cc2)cc1` [Example 40], the EC50 (HCV replicon) is 100 to 1000 nM.

Turning to `CC(C)c1scnc1C(=O)N1CCC[C@H]1C(=O)Nc1ccc(/C=C/c2ccc(NC(=O)[C@@H]3CCCN3C(=O)c3ncsc3C(C)C)cc2)cc1` [Example 190], the concentration for a half-maximal effect (EC50) (HCV replicon) lay within 100 to 1000 nM.

For `O=C(Nc1ccc(/C=C/c2ccc(NC(=O)[C@@H]3CCCN3C(=O)c3nccn3Cc3ccccc3)cc2)cc1)[C@@H]1CCCN1C(=O)c1nccn1Cc1ccccc1` [Example 179], the EC50 (HCV replicon) lay within 1000 to 10000 nM.

In the case of `O=C(Nc1ccc(/C=C/c2ccc(NC(=O)[C@@H]3CCCN3C(=O)c3nccc4ccccc34)cc2)cc1)[C@@H]1CCCN1C(=O)c1nccc2ccccc12` [Example 300], the EC50 (HCV replicon) fell in the range of 0.1 to 90 nM.

For `CN(C)c1cc(C(=O)N2CCC[C@H]2C(=O)Nc2ccc(/C=C/c3ccc(NC(=O)[C@@H]4CCCN4C(=O)c4cc(N(C)C)c5ccccc5n4)cc3)cc2)nc2ccccc12` [Example 297], the EC50 (HCV replicon) is 0.1 to 90 nM.

Take `O=C(Nc1ccc(/C=C/c2ccc(NC(=O)[C@@H]3CCCN3C(=O)c3cccc4ccccc34)cc2)cc1)[C@@H]1CCCN1C(=O)c1cccc2ccccc12` [Example 163]: where the note is “HCV replicon”, the EC50 was in the range of 1000 to 10000 nM.

`CC(C)(C)OC(=O)Nc1ccccc1C(=O)N1CCC[C@H]1C(=O)Nc1ccc(/C=C/c2ccc(NC(=O)[C@@H]3CCCN3C(=O)c3ccccc3NC(=O)OC(C)(C)C)cc2)cc1` [Example 150]: the EC50 lay within 1000 to 10000 nM.

On to `Cc1ccccc1S(=O)(=O)N1CCC[C@H]1C(=O)Nc1ccc(/C=C/c2ccc(NC(=O)[C@@H]3CCCN3S(=O)(=O)c3ccccc3C)cc2)cc1` [Example 282], for which, where the note is “HCV replicon”, the EC50 is 1000 to 10000 nM.

With `O=C(Nc1ccc(/C=C/c2ccc(NC(=O)[C@@H]3C=CCN3C(=O)C3CCC3)cc2)cc1)[C@@H]1C=CCN1C(=O)C1CCC1` [Example 74], the EC50 (HCV replicon) lay in the range of 100 to 1000 nM.

As for `O=C(Nc1ccc(/C=C/c2ccc(NC(=O)[C@@H]3CCCN3C(=O)c3cccnc3Cl)cc2)cc1)[C@@H]1CCCN1C(=O)c1cccnc1Cl` [Example 191], the EC50 (HCV replicon) lay in the range of 1000 to 10000 nM.

Take `[N-]=[N+]=Nc1ccc(C(=O)N2CCC[C@H]2C(=O)Nc2ccc(/C=C/c3ccc(NC(=O)[C@@H]4CCCN4C(=O)c4ccc(N=[N+]=[N-])cc4)cc3)cc2)cc1` [Example 60]: the EC50 (HCV replicon) was 1000 to 10000 nM.

Turning to `CC(C)(C)OC(=O)N1CCC[C@H]1C(=O)Nc1ccc(/C=C/c2ccc(NC(=O)[C@@H]3CCCN3C(=O)OC(C)(C)C)cc2)cc1` [Example 21], the EC50 (HCV replicon) lay within 100 to 1000 nM.

Turning to `O=C(Nc1ccc(/C=C/c2ccc(NC(=O)[C@@H]3CCCN3C(=O)C3CCC3)cc2)cc1)[C@@H]1CCCN1C(=O)C1CCC1` [Example 44], for the setting “HCV replicon”, the EC50 fell in the range of 0.1 to 90 nM.

Regarding `O=C(Nc1ccc(/C=C/c2ccc(NC(=O)[C@@H]3CCCCN3C(=O)OCc3ccccc3)cc2)cc1)[C@@H]1CCCCN1C(=O)OCc1ccccc1` [Example 9], the EC50 (HCV replicon) lay in the range of 0.1 to 90 nM.

As for `O=C(Nc1ccc(/C=C/c2ccc(NC(=O)[C@@H]3CCCN3C(=O)OCc3ccccc3)cc2)cc1)[C@@H]1CCCN1C(=O)OCc1ccccc1` [Example 2], for the setting “HCV replicon”, the EC50 was 0.1 to 90 nM.

With `CCc1ccccc1C(=O)N1CCC[C@H]1C(=O)Nc1ccc(/C=C/c2ccc(NC(=O)[C@@H]3CCCN3C(=O)Cc3cccnc3)cc2)cc1` [Example 143], the EC50 (HCV replicon) fell in the range of 100 to 1000 nM.

Consider `CSCC(=O)N1CCC[C@H]1C(=O)Nc1ccc(/C=C/c2ccc(NC(=O)[C@@H]3CCCN3C(=O)CSC)cc2)cc1` [Example 81], for which the EC50 (HCV replicon) was in the range of 0.1 to 90 nM.

Take `O=C(Nc1ccc(/C=C/c2ccc(NC(=O)[C@@H]3CCCN3C(=O)Cc3ccccc3)cc2)cc1)c1ccccc1OCc1ccccc1` [Example 268]: the EC50 (HCV replicon) was 1000 to 10000 nM.

In general, EC50 refers to the concentration at which the effect is half-maximal.

(Values after patent publication US8143288B2, “Inhibitors of HCV replication” (priority 2005, dated 2012).)
